Measurements: ChEMBL document CHEMBL2429768, “Eco-friendly synthesis and antimicrobial activities of substituted-5-(1H-indol-3-yl)methylene)-2,2-dimethyl-1,3-dioxane-4,6-dione derivatives” (2013)
In brackets after ≈: the same amount, converted by molar mass.

What was measured:
Type in all cases: functional
Aspergillus niger [1] = assay: Antifungal activity against Aspergillus niger at 50 ug/ml after 72 hrs by agar well diffusion method
Fusarium oxysporum [2] = assay: Antifungal activity against Fusarium oxysporum at 500 ug/ml after 72 hrs by agar well diffusion method
Fusarium oxysporum [3] = assay: Antifungal activity against Fusarium oxysporum at 300 ug/ml after 72 hrs by agar well diffusion method
Fusarium oxysporum [4] = assay: Antifungal activity against Fusarium oxysporum at 200 ug/ml after 72 hrs by agar well diffusion method
Fusarium oxysporum [5] = assay: Antifungal activity against Fusarium oxysporum at 100 ug/ml after 72 hrs by agar well diffusion method
Fusarium oxysporum [6] = assay: Antifungal activity against Fusarium oxysporum at 50 ug/ml after 72 hrs by agar well diffusion method
Rhizoctonia solani [7] = assay: Antifungal activity against Rhizoctonia solani at 500 ug/ml after 72 hrs by agar well diffusion method
Rhizoctonia solani [8] = assay: Antifungal activity against Rhizoctonia solani at 300 ug/ml after 72 hrs by agar well diffusion method
Rhizoctonia solani [9] = assay: Antifungal activity against Rhizoctonia solani at 200 ug/ml after 72 hrs by agar well diffusion method
Rhizoctonia solani [10] = assay: Antifungal activity against Rhizoctonia solani at 100 ug/ml after 72 hrs by agar well diffusion method
Rhizoctonia solani [11] = assay: Antifungal activity against Rhizoctonia solani at 50 ug/ml after 72 hrs by agar well diffusion method
Bacillus subtilis [12] = assay: Antibacterial activity against Bacillus subtilis at 500 ug/ml after 24 hrs by agar well diffusion method; conditions: read-out: DIZ
Bacillus subtilis [13] = assay: Antibacterial activity against Bacillus subtilis at 300 ug/ml after 24 hrs by agar well diffusion method; conditions: read-out: DIZ
Bacillus subtilis [14] = assay: Antibacterial activity against Bacillus subtilis at 200 ug/ml after 24 hrs by agar well diffusion method; conditions: read-out: DIZ
Bacillus subtilis [15] = assay: Antibacterial activity against Bacillus subtilis at 100 ug/ml after 24 hrs by agar well diffusion method; conditions: read-out: DIZ
Bacillus subtilis [16] = assay: Antibacterial activity against Bacillus subtilis at 50 ug/ml after 24 hrs by agar well diffusion method; conditions: read-out: DIZ
Staphylococcus aureus [17] = assay: Antibacterial activity against Staphylococcus aureus ATCC 6538 at 500 ug/ml after 24 hrs by agar well diffusion method; conditions: ATCC 6538, 24 h, read-out: DIZ
Staphylococcus aureus [18] = assay: Antibacterial activity against Staphylococcus aureus ATCC 6538 at 300 ug/ml after 24 hrs by agar well diffusion method; conditions: ATCC 6538, 24 h, read-out: DIZ
Staphylococcus aureus [19] = assay: Antibacterial activity against Staphylococcus aureus ATCC 6538 at 200 ug/ml after 24 hrs by agar well diffusion method; conditions: ATCC 6538, 24 h, read-out: DIZ
Staphylococcus aureus [20] = assay: Antibacterial activity against Staphylococcus aureus ATCC 6538 at 100 ug/ml after 24 hrs by agar well diffusion method; conditions: ATCC 6538, 24 h, read-out: DIZ
Escherichia coli [21] = assay: Antibacterial activity against Escherichia coli ATCC 8739 at 300 ug/ml after 24 hrs by agar well diffusion method; conditions: ATCC 8739, 24 h, read-out: DIZ
Escherichia coli [22] = assay: Antibacterial activity against Escherichia coli ATCC 8739 at 200 ug/ml after 24 hrs by agar well diffusion method; conditions: ATCC 8739, 24 h, read-out: DIZ
Escherichia coli [23] = assay: Antibacterial activity against Escherichia coli ATCC 8739 at 100 ug/ml after 24 hrs by agar well diffusion method; conditions: ATCC 8739, 24 h, read-out: DIZ
Escherichia coli [24] = assay: Antibacterial activity against Escherichia coli ATCC 8739 at 50 ug/ml after 24 hrs by agar well diffusion method; conditions: ATCC 8739, 24 h, read-out: DIZ
Klebsiella pneumoniae [25] = assay: Antibacterial activity against Klebsiella pneumoniae at 500 ug/ml after 24 hrs by agar well diffusion method; conditions: read-out: DIZ
Klebsiella pneumoniae [26] = assay: Antibacterial activity against Klebsiella pneumoniae at 300 ug/ml after 24 hrs by agar well diffusion method; conditions: read-out: DIZ
Klebsiella pneumoniae [27] = assay: Antibacterial activity against Klebsiella pneumoniae at 200 ug/ml after 24 hrs by agar well diffusion method; conditions: read-out: DIZ
Klebsiella pneumoniae [28] = assay: Antibacterial activity against Klebsiella pneumoniae at 50 ug/ml after 24 hrs by agar well diffusion method; conditions: read-out: DIZ
Escherichia coli [29] = assay: Antibacterial activity against Escherichia coli ATCC 8739 at 500 ug/ml after 24 hrs by agar well diffusion method; conditions: ATCC 8739, 24 h, read-out: DIZ
Klebsiella pneumoniae [30] = assay: Antibacterial activity against Klebsiella pneumoniae at 100 ug/ml after 24 hrs by agar well diffusion method; conditions: read-out: DIZ
Staphylococcus aureus [31] = assay: Antibacterial activity against Staphylococcus aureus ATCC 6538 at 50 ug/ml after 24 hrs by agar well diffusion method; conditions: ATCC 6538, 24 h, read-out: DIZ
Aspergillus flavus [32] = assay: Antifungal activity against Aspergillus flavus at 50 ug/ml after 72 hrs by agar well diffusion method
Aspergillus flavus [33] = assay: Antifungal activity against Aspergillus flavus at 100 ug/ml after 72 hrs by agar well diffusion method
Aspergillus flavus [34] = assay: Antifungal activity against Aspergillus flavus after 72 hrs by agar well diffusion method
Aspergillus niger [35] = assay: Antifungal activity against Aspergillus niger after 72 hrs by agar well diffusion method
Fusarium oxysporum [36] = assay: Antifungal activity against Fusarium oxysporum after 72 hrs by agar well diffusion method
Rhizoctonia solani [37] = assay: Antifungal activity against Rhizoctonia solani after 72 hrs by agar well diffusion method
Bacillus subtilis [38] = assay: Antibacterial activity against Bacillus subtilis after 24 hrs by agar well diffusion method
Staphylococcus aureus [39] = assay: Antibacterial activity against Staphylococcus aureus ATCC 6538 after 24 hrs by agar well diffusion method; conditions: ATCC 6538, 24 h
Escherichia coli [40] = assay: Antibacterial activity against Escherichia coli ATCC 8739 after 24 hrs by agar well diffusion method; conditions: ATCC 8739, 24 h
Klebsiella pneumoniae [41] = assay: Antibacterial activity against Klebsiella pneumoniae after 24 hrs by agar well diffusion method
Aspergillus flavus [42] = assay: Antifungal activity against Aspergillus flavus at 500 ug/ml after 72 hrs by agar well diffusion method
Aspergillus flavus [43] = assay: Antifungal activity against Aspergillus flavus at 300 ug/ml after 72 hrs by agar well diffusion method
Aspergillus flavus [44] = assay: Antifungal activity against Aspergillus flavus at 200 ug/ml after 72 hrs by agar well diffusion method
Aspergillus niger [45] = assay: Antifungal activity against Aspergillus niger at 500 ug/ml after 72 hrs by agar well diffusion method
Aspergillus niger [46] = assay: Antifungal activity against Aspergillus niger at 300 ug/ml after 72 hrs by agar well diffusion method
Aspergillus niger [47] = assay: Antifungal activity against Aspergillus niger at 200 ug/ml after 72 hrs by agar well diffusion method
Aspergillus niger [48] = assay: Antifungal activity against Aspergillus niger at 100 ug/ml after 72 hrs by agar well diffusion method

CCn1cc(C=C2C(=O)OC(C)(C)OC2=O)c2cc(OC)ccc21
zone of inhibition at 50 µg/mL (Aspergillus niger [1]; read-out: DIZ): 6 mm
zone of inhibition at 500 µg/mL (Fusarium oxysporum [2]; read-out: DIZ): 29 mm
zone of inhibition at 300 µg/mL (Fusarium oxysporum [3]; read-out: DIZ): 21 mm
zone of inhibition at 200 µg/mL (Fusarium oxysporum [4]; read-out: DIZ): 16 mm
zone of inhibition at 100 µg/mL (Fusarium oxysporum [5]; read-out: DIZ): 12 mm
zone of inhibition at 50 µg/mL (Fusarium oxysporum [6]; read-out: DIZ): 7 mm
zone of inhibition at 500 µg/mL (Rhizoctonia solani [7]; read-out: DIZ): 29 mm
zone of inhibition at 300 µg/mL (Rhizoctonia solani [8]; read-out: DIZ): 21 mm
zone of inhibition at 200 µg/mL (Rhizoctonia solani [9]; read-out: DIZ): 16 mm
zone of inhibition at 100 µg/mL (Rhizoctonia solani [10]; read-out: DIZ): 12 mm
zone of inhibition at 50 µg/mL (Rhizoctonia solani [11]; read-out: DIZ): 7 mm
zone of inhibition at 500 µg/mL (Bacillus subtilis [12]): 21 mm
zone of inhibition at 300 µg/mL (Bacillus subtilis [13]): 13 mm
zone of inhibition at 200 µg/mL (Bacillus subtilis [14]): 10 mm
zone of inhibition at 100 µg/mL (Bacillus subtilis [15]): 8 mm
zone of inhibition at 50 µg/mL (Bacillus subtilis [16]): 4 mm
zone of inhibition at 500 µg/mL (Staphylococcus aureus [17]): 22 mm
zone of inhibition at 300 µg/mL (Staphylococcus aureus [18]): 14 mm
zone of inhibition at 200 µg/mL (Staphylococcus aureus [19]): 11 mm
zone of inhibition at 100 µg/mL (Staphylococcus aureus [20]): 9 mm
zone of inhibition at 300 µg/mL (Escherichia coli [21]): 16 mm
zone of inhibition at 200 µg/mL (Escherichia coli [22]): 13 mm
zone of inhibition at 100 µg/mL (Escherichia coli [23]): 10 mm
zone of inhibition at 50 µg/mL (Escherichia coli [24]): 6 mm
zone of inhibition at 500 µg/mL (Klebsiella pneumoniae [25]): 31 mm
zone of inhibition at 300 µg/mL (Klebsiella pneumoniae [26]): 20 mm
zone of inhibition at 200 µg/mL (Klebsiella pneumoniae [27]): 15 mm
zone of inhibition at 50 µg/mL (Klebsiella pneumoniae [28]): 8 mm
zone of inhibition at 500 µg/mL (Escherichia coli [29]): 26 mm
zone of inhibition at 100 µg/mL (Klebsiella pneumoniae [30]): 13 mm
zone of inhibition at 50 µg/mL (Staphylococcus aureus [31]): 4 mm
zone of inhibition at 50 µg/mL (Aspergillus flavus [32]; read-out: DIZ): 4 mm
zone of inhibition at 100 µg/mL (Aspergillus flavus [33]; read-out: DIZ): 9 mm
MIC (Aspergillus flavus [34]): 40 µg/mL (≈ 121 µM)
MIC (Aspergillus niger [35]): 40 µg/mL (≈ 121 µM)
MIC (Fusarium oxysporum [36]): 35 µg/mL (≈ 106 µM)
MIC (Rhizoctonia solani [37]): 35 µg/mL (≈ 106 µM)
MIC (Bacillus subtilis [38]): 30 µg/mL (≈ 91.1 µM)
MIC (Staphylococcus aureus [39]): 25 µg/mL (≈ 75.9 µM)
MIC (Escherichia coli [40]): 15 µg/mL (≈ 45.5 µM)
MIC (Klebsiella pneumoniae [41]): 15 µg/mL (≈ 45.5 µM)
zone of inhibition at 500 µg/mL (Aspergillus flavus [42]; read-out: DIZ): 23 mm
zone of inhibition at 300 µg/mL (Aspergillus flavus [43]; read-out: DIZ): 15 mm
zone of inhibition at 200 µg/mL (Aspergillus flavus [44]; read-out: DIZ): 12 mm
zone of inhibition at 500 µg/mL (Aspergillus niger [45]; read-out: DIZ): 25 mm
zone of inhibition at 300 µg/mL (Aspergillus niger [46]; read-out: DIZ): 18 mm
zone of inhibition at 200 µg/mL (Aspergillus niger [47]; read-out: DIZ): 14 mm
zone of inhibition at 100 µg/mL (Aspergillus niger [48]; read-out: DIZ): 10 mm

CN[C@@H]1[C@H](O[C@H]2[C@H](O[C@H]3[C@H](O)[C@@H](O)[C@H](N=C(N)N)[C@@H](O)[C@@H]3N=C(N)N)O[C@@H](C)[C@]2(O)C=O)O[C@@H](CO)[C@H](O)[C@H]1O [STREPTOMYCIN]
zone of inhibition at 500 µg/mL (Bacillus subtilis [12]): 28 mm
zone of inhibition at 300 µg/mL (Bacillus subtilis [13]): 20 mm
zone of inhibition at 200 µg/mL (Bacillus subtilis [14]): 17 mm
zone of inhibition at 100 µg/mL (Bacillus subtilis [15]): 14 mm
zone of inhibition at 50 µg/mL (Bacillus subtilis [16]): 9 mm
zone of inhibition at 500 µg/mL (Staphylococcus aureus [17]): 31 mm
zone of inhibition at 300 µg/mL (Staphylococcus aureus [18]): 22 mm
zone of inhibition at 200 µg/mL (Staphylococcus aureus [19]): 19 mm
zone of inhibition at 100 µg/mL (Staphylococcus aureus [20]): 15 mm
zone of inhibition at 300 µg/mL (Escherichia coli [21]): 26 mm
zone of inhibition at 200 µg/mL (Escherichia coli [22]): 23 mm
zone of inhibition at 100 µg/mL (Escherichia coli [23]): 17 mm
zone of inhibition at 50 µg/mL (Escherichia coli [24]): 12 mm
zone of inhibition at 500 µg/mL (Klebsiella pneumoniae [25]): 37 mm
zone of inhibition at 300 µg/mL (Klebsiella pneumoniae [26]): 28 mm
zone of inhibition at 200 µg/mL (Klebsiella pneumoniae [27]): 24 mm
zone of inhibition at 50 µg/mL (Klebsiella pneumoniae [28]): 13 mm
zone of inhibition at 500 µg/mL (Escherichia coli [29]): 36 mm
zone of inhibition at 100 µg/mL (Klebsiella pneumoniae [30]): 18 mm
zone of inhibition at 50 µg/mL (Staphylococcus aureus [31]): 10 mm
MIC (Bacillus subtilis [38]): 20 µg/mL (≈ 34.4 µM)
MIC (Staphylococcus aureus [39]): 10 µg/mL (≈ 17.2 µM)
MIC (Escherichia coli [40]): 5 µg/mL (≈ 8.6 µM)
MIC (Klebsiella pneumoniae [41]): 5 µg/mL (≈ 8.6 µM)

NYSTATIN
inhibition zone (IZ) (Aspergillus niger [1]): 11.2 mm
inhibition zone (IZ) (Fusarium oxysporum [2]): 37 mm
inhibition zone (IZ) (Fusarium oxysporum [3]): 29 mm
inhibition zone (IZ) (Fusarium oxysporum [4]): 21 mm
inhibition zone (IZ) (Fusarium oxysporum [5]): 18 mm
inhibition zone (IZ) (Fusarium oxysporum [6]): 15 mm
inhibition zone (IZ) (Rhizoctonia solani [7]): 38 mm
inhibition zone (IZ) (Rhizoctonia solani [8]): 30 mm
inhibition zone (IZ) (Rhizoctonia solani [9]): 22 mm
inhibition zone (IZ) (Rhizoctonia solani [10]): 20 mm
inhibition zone (IZ) (Rhizoctonia solani [11]): 16 mm
inhibition zone (IZ) (Aspergillus flavus [32]): 11 mm
inhibition zone (IZ) (Aspergillus flavus [33]): 13 mm
MIC (Aspergillus flavus [34]): 20 µg/mL
MIC (Aspergillus niger [35]): 20 µg/mL
MIC (Fusarium oxysporum [36]): 15 µg/mL
MIC (Rhizoctonia solani [37]): 15 µg/mL
inhibition zone (IZ) (Aspergillus flavus [42]): 32 mm
inhibition zone (IZ) (Aspergillus flavus [43]): 22 mm
inhibition zone (IZ) (Aspergillus flavus [44]): 16 mm
inhibition zone (IZ) (Aspergillus niger [45]): 34 mm
inhibition zone (IZ) (Aspergillus niger [46]): 23 mm
inhibition zone (IZ) (Aspergillus niger [47]): 16.6 mm
inhibition zone (IZ) (Aspergillus niger [48]): 14 mm
